The structures appear in SMILES notation.

The values below come from patent publication US9624229B2, “Pyrimidine-2-amine compounds and their use as inhibitors of JAK kinases” (Rigel Pharmaceuticals, Inc., priority 2008, dated 2017).

Ba/F3 V617F cells, sequence (O60674 whole entry V617F): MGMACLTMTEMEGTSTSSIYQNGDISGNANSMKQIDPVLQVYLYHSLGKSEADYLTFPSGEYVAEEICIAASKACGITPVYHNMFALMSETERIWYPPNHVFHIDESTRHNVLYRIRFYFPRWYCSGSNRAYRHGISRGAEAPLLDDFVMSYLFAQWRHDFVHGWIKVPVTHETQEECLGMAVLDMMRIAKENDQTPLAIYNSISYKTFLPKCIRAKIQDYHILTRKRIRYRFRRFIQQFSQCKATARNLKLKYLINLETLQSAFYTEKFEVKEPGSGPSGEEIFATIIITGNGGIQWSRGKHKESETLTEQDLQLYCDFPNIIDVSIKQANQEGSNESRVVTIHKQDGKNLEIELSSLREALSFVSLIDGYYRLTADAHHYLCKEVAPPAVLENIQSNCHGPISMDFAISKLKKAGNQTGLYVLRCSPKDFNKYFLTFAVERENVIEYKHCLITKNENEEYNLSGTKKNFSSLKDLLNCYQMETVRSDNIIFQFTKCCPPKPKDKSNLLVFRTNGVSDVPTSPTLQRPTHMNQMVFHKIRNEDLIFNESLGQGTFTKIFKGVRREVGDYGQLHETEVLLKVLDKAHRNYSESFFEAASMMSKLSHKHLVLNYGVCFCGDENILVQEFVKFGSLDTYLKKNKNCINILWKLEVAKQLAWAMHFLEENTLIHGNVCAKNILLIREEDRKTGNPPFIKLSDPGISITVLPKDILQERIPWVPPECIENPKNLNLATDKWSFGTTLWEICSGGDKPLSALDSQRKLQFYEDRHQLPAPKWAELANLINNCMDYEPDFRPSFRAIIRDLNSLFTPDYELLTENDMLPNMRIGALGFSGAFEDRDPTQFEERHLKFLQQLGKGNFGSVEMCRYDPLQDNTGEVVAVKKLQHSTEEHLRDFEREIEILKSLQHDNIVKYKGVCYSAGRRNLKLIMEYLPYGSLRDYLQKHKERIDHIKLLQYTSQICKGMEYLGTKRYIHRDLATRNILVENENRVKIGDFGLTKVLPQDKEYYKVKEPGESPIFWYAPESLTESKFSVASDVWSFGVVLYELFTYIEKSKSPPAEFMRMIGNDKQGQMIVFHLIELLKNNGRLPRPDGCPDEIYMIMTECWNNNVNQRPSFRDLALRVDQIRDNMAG

One assay concerns the target Ba/F3 V617F cells (Homo sapiens, UniProt O60674, V617F, cells depend on it). Description: Proliferation assay (Cell Titer-Glo, 72 h) utilizing Ba/F3 V617F cells. The assay is classed as cell-based, mouse. As to conditions: Ba/F3 V617F cells, proliferation, level of activity given as class symbol, read-out: IC50 (the source's name). Here is the method:
Ba/F3 V617F cells are maintained and plated in RPMI with 10% FBS. Plating density for these cells is 1×10^5 cells/mL.
The cells were resuspended in a corresponding medium at a required cell density (see above). 100μ of cell suspension was added to each well of a flat bottom 96 well white plate. The compound was serially diluted in DMSO from 5 mM in 3-fold dilutions, and then diluted 1:250 in the RPMI 1640 medium containing 5% FBS and pen/strep. 100 μL of resulting 2× compound solution was added per well in duplicate and the cells were allowed to proliferate for 72 hours at 37° C.
Proliferation was measured using Cell Titer-Glo. The substrate was thawed and allowed to come to ambient temperature. After removal of top 100 μL of medium from each well, 100 μL of the premixed Cell Titer-Glo reagent was added to each well. The plates were mixed on an orbital shaker for three minutes to induce lysis and incubated at ambient temperature for an additional five minutes to allow the signal to equilibrate. The Luminescence was read on the Wallac Plate Reader.
The results of the ability of the compounds of the invention to inhibit JAK2 activity, when tested in the above assay utilizing Ba/F3 V617F cells, are shown in the following Tables 2-3 wherein the level of activity (i.e., the IC50) for each compound is indicated in Tables 2-3. The compound numbers in Tables 2-3 refers to the compounds disclosed herein as being prepared by the methods disclosed herein: […]
For orientation: Cellular ATP, detected with luciferase, serves as a proxy for viable cell number.
Consider `Cc1cc(Nc2nccc(-c3ccc(N4C[C@@H](C)O[C@@H](C)C4)nc3)n2)ccc1N1CC2(C)CN(C)CC(C)(C1)C2` [compound 212, 4-(6-((2S,6R)-2,6-dimethylmorpholin-4-yl)pyridin-3-yl)-N-(3-methyl-4-(1,5,7-trimethyl-3,7-diazabicyclo[3.3.1]nonan-3-yl)phenyl)pyrimidin-2-amine], for which the GI50 is under 1000 nM.

On to `CCCNc1ccc(-c2ccnc(Nc3ccc(N4C[C@@H]5C[C@H]4CN5C)c(C)c3)n2)cn1` [compound 188, 4-(6-(propylamino)pyridin-3-yl)-N-(3-methyl-4-((1S,4S)-5-methyl-2,5-diazabicyclo[2.2.1]heptan-2-yl)phenyl)pyrimidin-2-amine], for which the GI50 was under 1000 nM.

As for `Cc1cc(Nc2nccc(-c3cnc4[nH]c5c(c4c3)CCCC5)n2)ccc1N1C[C@@H]2C[C@H]1CN2S(C)(=O)=O` [compound 268, 4-(6,7,8,9-tetrahydro-5H-pyrido[2,3-b]indol-3-yl)-N-(3-methyl-4-((1S,4S)-5-(methylsulfonyl)-2,5-diazabicyclo[2.2.1]heptan-2-yl)phenyl)pyrimidin-2-amine], the GI50 lay in the range of 1000 to 10000 nM. Regarding `Cc1cc(Nc2nccc(-c3ccc4c(c3)CCCC(=O)N4)n2)ccc1N1C[C@@H]2C[C@H]1CN2C` [compound 242, 4-(2-oxo-2,3,4,5-tetrahydro-1H-benzo[b]azepin-7-yl)-N-(3-methyl-4-((1S,4S)-5-methyl-2,5-diazabicyclo[2.2.1]heptan-2-yl)phenyl)pyrimidin-2-amine], the GI50 was under 1000 nM. On to `CC1(C)Oc2cc(-c3ccnc(Nc4ccc(N5C[C@@H]6C[C@H]5CN6S(C)(=O)=O)c(Cl)c4)n3)cnc2NC1=O` [compound 249, 4-(2,2-dimethyl-3-oxo-3,4-dihydro-2H-pyrido[3,2-b][1,4]oxazin-7-yl)-N-(3-chloro-4-((1S,4S)-5-(methylsulfonyl)-2,5-diazabicyclo[2.2.1]heptan-2-yl)phenyl)pyrimidin-2-amine], for which the GI50 was under 1000 nM. Same read-out and setting: with `Cc1cc(Nc2nccc(-c3ccc(OC4CCOCC4)nc3)n2)ccc1N1C[C@@H]2C[C@H]1CN2C` [compound 261, 4-(6-(tetrahydropyran-4-yloxy)pyridin-3-yl)-N-(3-methyl-4-((1S,4S)-5-methyl-2,5-diazabicyclo[2.2.1]heptan-2-yl)phenyl)pyrimidin-2-amine] the figure was under 1000 nM. As for `CC(=O)N1C[C@@H]2C[C@H]1CN2c1ccc(Nc2nccc(-c3ccc(N4CCOCC4)nc3)n2)cc1Cl` [compound 259, 4-(6-(morpholin-4-yl)pyridin-3-yl)-N-(3-chloro-4-((1S,4S)-5-acetyl-2,5-diazabicyclo[2.2.1]heptan-2-yl)phenyl)pyrimidin-2-amine], the GI50 was under 1000 nM. In the case of `Cc1cc(Nc2nccc(-c3cnc4c(c3)OCCN4C)n2)ccc1N1C[C@@H]2C[C@H]1CN2S(C)(=O)=O` [compound 193, 4-(4-methyl-3,4-dihydro-2H-pyrido[3,2-b][1,4]oxazin-7-yl)-N-(3-methyl-4-((1S,4S)-5-methylsulfonyl-2,5-diazabicyclo[2.2.1]heptan-2-yl)phenyl)pyrimidin-2-amine], the GI50 is under 1000 nM. On the same count and under the same terms, with `Cc1cc(Nc2nccc(-c3ccc4c(c3)SCC(=O)N4)n2)ccc1N1CCN2C(C1)[C@H]1CC[C@@H]2C1` (stereo partly drawn) [compound 279, 4-(3-oxo-3,4-dihydro-2H-benzo[b][1,4]thiazin-7-yl)-N-(3-methyl-4-((6R,9S)-6,9-methanooctahydro-1H-pyrido[1,2-a]pyrazin-2-yl)phenyl)pyrimidin-2-amine] the figure was under 1000 nM.

The same assay, now with this note: Ba/F3 V617F cells, proliferation, level of activity to inhibit JAK2, read-out: IC50 (the source's name).
For `CN1C[C@@H]2C[C@H]1CN2c1ccc(Nc2nccc(-c3ccc(NC(=O)C(C)(C)C)cc3)n2)cc1F` [compound 128, 4-(4-(t-butylcarbonylamino)phenyl)-N-(3-fluoro-4-((1S,4S)-5-methyl-2,5-diazabicyclo[2.2.1]heptan-2-yl)phenyl)pyrimidin-2-amine], the GI50 was under 1000 nM. Still for that read-out and setting: with `Cc1cc(Nc2nccc(-c3cnc4c(c3)OC(C)(C)C(=O)N4)n2)ccc1N1C[C@H]2C[C@@H]1CN2C` [compound 71, 4-(2,2-dimethyl-3-oxo-3,4-dihydro-2H-pyrido[3,2-b][1,4]oxazin-7-yl)-N-(3-methyl-4-((1R,4R)-5-methyl-2,5-diazabicyclo[2.2.1]heptan-2-yl)phenyl)pyrimidin-2-amine] the figure was under 1000 nM. Take `Cc1cc(Nc2nccc(-c3ccc4ncn(C)c4c3)n2)ccc1N1CCN2CCC1C2` (stereo not shown) [compound 122, (1-methylbenzimidazol-6-yl)-N-(3-methyl-4-(1,4-diazabicyclo[3.2.1]octan-4-yl)phenyl)pyrimidin-2-amine]: the GI50 is under 1000 nM. With `Cc1cc(Nc2nccc(-c3cnc(N4CCOCC4)c(C)c3)n2)ccc1N1C[C@@H]2C[C@H]1CN2C` [compound 60, 4-(5-methyl-6-(morpholin-4-yl)pyridin-3-yl)-N-(3-methyl-4-((1S,4S)-5-methyl-2,5-diazabicyclo[2.2.1]heptan-2-yl)phenyl)pyrimidin-2-amine], the GI50 is under 1000 nM. For `CN1C[C@@H]2C[C@H]1CN2c1ccc(Nc2nccc(-c3cnc4c(c3)OCCN4)n2)cc1F` [compound 87, 4-(3,4-dihydro-2H-pyrido[3,2-b][1,4]oxazin-7-yl)-N-(3-fluoro-4-((1S,4S)-5-methyl-2,5-diazabicyclo[2.2.1]heptan-2-yl)phenyl)pyrimidin-2-amine], the GI50 was under 1000 nM. On the same count and under the same terms, with `CCC(=O)N1C[C@@H]2C[C@H]1CN2c1ccc(Nc2nccc(-c3cnc4c(c3)OC(C)(C)C(=O)N4)n2)cc1C` [compound 28, 4-(2,2-dimethyl-3-oxo-3,4-dihydro-2H-pyrido[3,2-b][1,4]oxazin-7-yl)-N-(3-methyl-4-((1S,4S)-5-(ethylcarbonyl)-2,5-diazabicyclo[2.2.1]heptan-2-yl)phenyl)pyrimidin-2-amine] the figure was under 1000 nM; with `Cc1cnc(Nc2ccc(N3C[C@@H]4C[C@H]3CN4C)c(F)c2)nc1-c1ccc(N(C)C)nc1` [compound 6, 4-(6-(N,N-dimethylamino)pyridin-3-yl)-5-methyl-N-(3-fluoro-4-((1S,4S)-5-methyl-2,5-diazabicyclo[2.2.1]heptan-2-yl)phenyl)pyrimidin-2-amine], under 1000 nM; with `Cc1cc(Nc2nccc(-c3cnc(N4CCOCC4)nc3)n2)ccc1N1C[C@@H]2C[C@H]1CO2` [compound 42, 4-(2-(morpholin-4-yl)pyrimidin-5-yl)-N-(3-methyl-4-((1S,4S)-5-oxa-2-azabicyclo[2.2.1]heptan-2-yl)phenyl)pyrimidin-2-amine], 1000 to 10000 nM. `Cc1cc(Nc2nccc(-c3cnn(-c4cccc(Cl)c4)c3)n2)ccc1N1C[C@@H]2C[C@H]1CN2C` [compound 106, 4-(1-(3-chlorophenyl)-1H-pyrazol-4-yl)-N-(3-methyl-4-((1S,4S)-5-methyl-2,5-diazabicyclo[2.2.1]heptan-2-yl)phenyl)pyrimidin-2-amine]: the GI50 was 1000 to 10000 nM. As for `Cc1cc(Nc2nccc(-c3cnc4c(c3)OCCN4)n2)ccc1N1C[C@@H]2C[C@H]1CN2C` [compound 86, 4-(3,4-dihydro-2H-pyrido[3,2-b][1,4]oxazin-7-yl)-N-(3-methyl-4-((1S,4S)-5-methyl-2,5-diazabicyclo[2.2.1]heptan-2-yl)phenyl)pyrimidin-2-amine], the GI50 is under 1000 nM. With `Cc1cc(Nc2nccc(-c3ccc(N4C[C@@H]5C[C@H]4CN5C)nc3)n2)ccc1N1CCN(C)CC1` [compound 12, 4-(6-((1S,4S)-5-methyl-2,5-diazabicyclo-[2.2.1]-heptan-2-yl)pyridin-3-yl)-N-(3-methyl-4-(4-methyl-piperazin-1-yl)phenyl)-pyrimidin-2-amine], the GI50 was 1000 to 10000 nM. For `Cc1cc(Nc2nccc(-c3ccc(NS(C)(=O)=O)nc3)n2)ccc1N1CC2CCC(C1)N2C` [compound 167, 4-(6-(methylsulfonylamino)pyridin-3-yl)-N-(3-methyl-4-(8-methyl-3,8-diazabicyclo[3.2.1]octan-3-yl)phenyl)pyrimidin-2-amine], the GI50 is under 1000 nM.

For the compound `Cc1cc(Nc2nccc(-c3ccc(C(=O)Nc4ccccn4)cc3)n2)ccc1N1CCN2CCC1CC2` [compound 161, 4-(4-((pyridin-2-yl)aminocarbonyl)phenyl)-N-(3-methyl-4-(1,4-diazabicyclo[3.2.2]nonan-4-yl)phenyl)pyrimidin-2-amine], the GI50 is under 1000 nM.

Staying with this assay, now noted: inhibition of JAK2 activity, proliferation of Ba/F3 V617F cells, read-out: IC50 (the source's name).
As to `CN(C)c1nc(-c2ccnc(Nc3ccc(N4C[C@@H]5C[C@H]4CN5C)nc3)n2)cs1` [compound 177, 4-(2-(dimethylamino)thiazol-4-yl)-N-(6-((1S,4S)-5-methyl-2,5-diazabicyclo[2.2.1]heptan-2-yl)pyridin-3-yl)pyrimidin-2-amine], the GI50 was over 20000 nM. Consider `Cc1cc(Nc2nccc(-c3ccc(N(C)C)cc3)n2)cnc1N1C[C@@H]2C[C@H]1CN2C` [compound 62], for which the GI50 was in the range of 1000 to 10000 nM. On to `CC(=O)N1CCN(c2ccc(-c3ccnc(Nc4cnc(N5C[C@@H]6C[C@H]5CN6C)c(C)c4)n3)cn2)CC1` [compound 63, 4-(6-(4-acetylpiperazin-1-yl)pyridin-3-yl)-N-(5-methyl-6-((1S,4S)-5-methyl-2,5-diazabicyclo[2.2.1]heptan-2-yl)pyridin-3-yl)pyrimidin-2-amine], for which the GI50 is 1000 to 10000 nM.
